Measurements published in US20170044150A1, “IDENTIFICATION OF COMPOUNDS WHICH INHIBIT ATG8-ATG3 PROTEIN-PROTEIN INTERACTION AND THEIR USE AS ANTIPARASITICAL AGENTS” (THE JOHNS HOPKINS UNIVERSITY, priority 2014, published 2017).

Assays:
[1] = molecular target: T1, PfAtg8-PfAtg3 interaction (Plasmodium falciparum, UniProt Q8IJK2); test: SPR protein-protein interaction assay, PfAtg8-PfAtg3 (VLS compounds); assay type: binding, P. falciparum; details: read-out: SPR-IC50; dose-dependent inhibition of plasmodial Atg8-Atg3
T1 construct: rows headed: SPR-IC50
T1 sequence (Q8IJK2 1-124 C32I/C119S/C122S): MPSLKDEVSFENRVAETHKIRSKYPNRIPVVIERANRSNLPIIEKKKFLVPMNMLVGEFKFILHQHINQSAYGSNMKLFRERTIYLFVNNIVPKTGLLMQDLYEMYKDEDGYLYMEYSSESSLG
Method: Surface Plasmon Resonance (SPR) protein-protein interaction assay. All measurements were carried out on a BiaCore 3000 instrument. We used the previously described SPR competition assay to test inhibition of the PfAtg8-PfAtg3 and hLC3-hAtg3 interaction. The standard running buffer was 10 mM HEPES, 150 mM NaCl, 0.01% Tween 20, adjusted to pH 7.5. Prior to performing SPR assays, all solutions were sterile filtered and degassed for 1 h at room temperature. For small molecule inhibitor studies, the same running buffer was supplemented with 1% DMSO. All dose dependency measurements were carried out in triplicate and corrected for DMSO absorption effects using double referencing with interspersed blank injections and an untreated flow cell on the SPR chip and the SPR analysis software Scrubber 2.0 (BioLogics). For each interaction pair, a new CM5 SPR chip was used. To exclude surface decay during the experiment, positive control injections were interspersed every 12th injection. For all interaction studies, the Atg3 homologue was immobilized and the corresponding Atg8 partner was passed as an analyte over the chip in either the presence or absence of small molecule inhibitors, dissolved to 100 mM in 100% DMSO and tested at 500 μM final concentration. Prior to the immobilization of Atg3 to an SPR chip, a pH scouting from pH 6.0 to pH 4.0 in intervals of 0.5 pH units was carried out to determine the best pre-concentration conditions for immobilization. Briefly, flow cells of an SPR chip were activated using N-hydroxysuccinimide (NHS) and 1-ethyl-3-(3-dimethylaminopropyl)carbodiimide (EDC) for 7 min with a flow rate of 20 μl/min. For PfAtg3 immobilization, a solution of 50 μg/ml of PfAtg3 in 10 mM sodium acetate pH 5.0 was passed over one flow cell until >500 Response Units (RU) were captured. The same procedure was followed for the immobilization of hAtg3. Activated free binding sites on the chip were blocked using 1 M ethanolamine for an additional 7 min. All experiments were carried out at 25° C. with a 40 μl/min flow rate and 75 s contact time, followed by a 1 min dissociation time and a 25 μl regeneration injection of 2 M MgCl2.
The dose-response curves were used to determine the approximate concentration of analyte (PfAtg8 or hLC3) needed to obtain a particular response unit (RU), typically in the range of 100-150 RU's. A fixed amount of analyte was then passed over the chip resulting in at least 100-150 response units (RU) in the absence of small molecules.

[2] = system: P. falciparum 3D7-GFP; assay type: cell-based; details: 96 hrs post infection
Method: In vitro infection of human hepatocytes with P. falciparum 3D7-GFP. The HC-04 cell line (ATCC, Manassas, Va., USA) was maintained in complete medium (IMDM containing 2.5% FCS, 100 units/ml penicillin, 100 μg/ml streptomycin and 2 mM L-glutamine, all from GIBCO®, Life Technologies, Grand Island, N.Y.). P. falciparum 3D7-GFP parasite strain (PLoS ONE 2010, 5, e9156) was propagated in the Parasitology Core facility, the Johns Hopkins Malaria Research Institute. In vitro infection of human hepatocytes was done as described previously (PLoS ONE 2013, 8, e75321). Briefly, salivary glands were sequestered from infected Anopheles gambiae mosquitoes at day 17 after exposure to infective blood meal and homogenates were separated on an OptiPrep™ Density Gradient (Sigma-Aldrich, St. Louis, Mo.) at 12,000×g for 10 minutes. Sporozoites were collected from the gradient interface, washed in complete medium, counted using a hemocytometer and incubated with HC-04 cells at 3:1 sporozoite to hepatocyte ratio for 2 hours at 37° C. […]
Detection of P. falciparum exoerythrocytic forms in vitro. HC-04 human hepatocyte cell line (ATCC, Manassas, Va., USA) was maintained in complete medium (IMDM containing 2.5% FCS, 100 units/ml penicillin, 100 μg/ml streptomycin and 2 mM L-glutamine, all from GIBCO®, Life Technologies, Grand Island, N.Y.). P. falciparum 3D7HT-GFP parasite strain (PLoS One. 5(2):e9156. doi:10.1371/journal.pone.0009156 (2010)) was propagated in the Parasitology Core facility of the Johns Hopkins Malaria Research Institute. In vitro infection of human hepatocytes, and detection and quantification of P. falciparum 3D7HT-GFP EEFs by flow cytometry were performed as previously described (PLoS One. 8(9):e75321. doi:10.1371/journal.pone.0075321 (2013)).

[3] = system: P. falciparum 3D7; test: SYBR Green I growth inhibition assay, blood stage; assay type: cell-based; details: Plasmodium falciparum, 3D7, 3D7 blood stage cultures; read-out: IC50
Method: P. falciparum blood stage culturing. P. falciparum 3D7 and FCR3 cultures were maintained using modified, previously published methods at 37° C., 2% hematocrit of human red blood cells (Science 1976, 193, 673-675). Complete culture media consisted of sterile RPMI 1640 media (Life Technologies), supplemented with 10% human serum, 0.005% hypoxanthine, and buffered with final concentrations of 0.6% HEPES and 0.26% NaHCO3. The FCR3 strain was maintained at 3% CO2 and 5% O2, 92% N2 atmosphere, while the 3D7 strain was maintained at 5% CO2, 5% O2, 90% N2 atmosphere.
SYBR Green I growth inhibition assay. 10 μL of 10× compound diluted in RPMI 1640 media (Gibco) with a constant concentration of 1% DMSO was added to a 96 well plate (Costar), 90 μL of 1.5% ring stage, synchronized with 5% w/v sorbitol P. falciparum 3D7 parasites, 1% hematocrit, in culture media with 10% v/v human serum with 10 μg/mL gentamycin. Each compound concentration and 1% v/v DMSO controls were run in triplicate. Plates were incubated at 37° C. in 5% O2, 5% CO2 and 90% N2 for 72 hours. Plates were frozen, thawed, and incubated with 100-μL 2× SYBR green in lysis buffer (20 mM Tris pH 7.5, 5 mM EDTA, 0.008% Saponin, 0.08% TritonX-100) in the dark for at least one hour. Fluorescence was measured with a plate reader (HTS 7000, Perkin Elmer) at excitation/emission wavelengths of 485/535 nm.
Plasmodium parasite growth inhibition assay. P. falciparum 3D7 parasites were cultured as previously described (J Med Chem 57:4521-4531(2014)). Briefly, the parasites were cultured in 10% v/v human serum with 10 μg/mL gentamycin and synchronized with 5% w/v sorbitol. 1.5% ring stage parasites were added to 96 well plates (Costar) containing serial dilutions, performed in triplicate, of compound in RPMI 1640 media (Gibco). Plates were incubated at 37° C. in 5% O2, 5% CO2, and 90% N2 for 72 h. Plates were frozen, thawed, and incubated with 100 μL 2× SYBR green in lysis buffer (20 mM Tris pH 7.5, 5 mM EDTA, 0.008% Saponin, 0.08% TritonX-100) in the dark for 1 h. Fluorescence was measured with a plate reader (HTS 7000, PerkinElmer) at excitation/emission wavelengths of 485/535 nm.

[4] = molecular target: PfAtg8^CM (Plasmodium falciparum, UniProt Q8IJK2); test: Thermal shift assay; details: 100 μM to 2 mM
[5] = system: HC-04 cells; test: HC-04 hepatocyte viability / cytotoxicity (Annexin-V, PI flow cytometry); assay type: cell-based, human; details: 96 hour treatment
Method: Detection of Annexin-V positive and PI-positive cells in hepatocyte cultures was done by flow cytometry according to the manufacturer's instruction (Invitrogen™, Life Technologies, Grand Island, N.Y., USA).
Hepatocyte cytotoxicity assay. Hepatocyte cytotoxicity assays were carried out in triplicate at two concentrations of inhibitory compounds using HC-04 cells as previously described. Flow cytometry was used to assess two cytotoxicity markers via staining, namely propidium iodine (PI) and Annexin-V.

[6] = system: PfAtg8; test: Immunoblot analysis of PfAtg8 in P. falciparum blood stage cultures; assay type: cell-based; details: 100 μM, five-hour treatment
Text: Immunoblot analysis of P. falciparum blood stage. […] RBCs were harvested with centrifugation, lysed with 0.2% saponin, and RBC lysate was removed through three 1× PBS washes. Parasites were harvested by centrifugation and washed in 1× PBS with Complete EDTA-free protease inhibitors (Roche) and lysed by repeated vortexing and boiling in SDS reducing sample buffer. […] HRP-conjugated secondary antibodies (Southern Biotech) were detected by SuperSignal West Femto (Thermo Scientific) or Amersham™ ECL™ Prime (GE Healthcare) chemiluminescent substrate. AP-conjugated secondary antibodies (EMD Millipore) were detected using NBT/BCIP (Promega) colorimetric stain. Total protein levels were visualized with ProAct™ Membrane Stain (Amresco) and quantified with ImageJ. Parasite morphology at time of harvesting was visualized with light microscopy at 100× magnification on Olympus BX53 system microscope (Olympus America, Inc.).

[7] = molecular target: T2, hLC3-hAtg3 interaction (Homo sapiens, UniProt Q9GZQ8); test: SPR protein-protein interaction assay, hLC3-hAtg3; assay type: binding; details: 500 μM
T2 construct: made in house; host or cells: E. coli Rosetta 2
Method: Surface Plasmon Resonance (SPR) protein-protein interaction assay. All measurements were carried out on a BiaCore 3000 instrument. We used the previously described SPR competition assay to test inhibition of the PfAtg8-PfAtg3 and hLC3-hAtg3 interaction. The standard running buffer was 10 mM HEPES, 150 mM NaCl, 0.01% Tween 20, adjusted to pH 7.5. Prior to performing SPR assays, all solutions were sterile filtered and degassed for 1 h at room temperature. For small molecule inhibitor studies, the same running buffer was supplemented with 1% DMSO. All dose dependency measurements were carried out in triplicate and corrected for DMSO absorption effects using double referencing with interspersed blank injections and an untreated flow cell on the SPR chip and the SPR analysis software Scrubber 2.0 (BioLogics). For each interaction pair, a new CM5 SPR chip was used. To exclude surface decay during the experiment, positive control injections were interspersed every 12th injection. For all interaction studies, the Atg3 homologue was immobilized and the corresponding Atg8 partner was passed as an analyte over the chip in either the presence or absence of small molecule inhibitors, dissolved to 100 mM in 100% DMSO and tested at 500 μM final concentration. […]

SMILES	IC50 [1]	reduction of the number of infected HC-04 cells ([2]; 30 μM)	GFP fluorescence intensity [2]	IC50 [3]	effect on Tm of PfAtg8^CM [4]	cell viability of HC-04 cells [5]	increase of PfAtg8 protein levels compared to the loading control [6]	mobility of Atg8 [6]	effect on hAtg3-hLC3 binding [7]
Cc1cccc(CNC(=O)NCC2CCN(Cc3ccccn3)C2)c1 (stereo not drawn) [Compound C25, 1-[(3-methylphenyl)methyl]-3-([1-pyridin-2-ylmethyl-pyrrolidin-3-yl]methyl)urea]	18.5 ± 2.1 µM	30%	little effect	19 ± 6 µM	dose-dependent decrease	did not affect cell viability	over 10 fold	retarded, indicative of the unlipidated Atg8 species	
Cc1cccn2cc(C(=O)NCC3CCN(Cc4cnc[nH]4)C3)nc12 (stereo not drawn) [Compound C24, N-([1-(1H-imidazol-5-ylmethyl)pyrrolidin-3-yl]methyl)-8-methyl-imidazo[3,2-a] pyridine-2-carboxamide]									significant increase in binding
